Starred links: 1 amine or outer side, 2 acyl side, 3 side chain; linkers in the order of their positions; H or OH if unused. Non-standard residues stand in square brackets, D forms with d. Residues, ends and D or L forms follow the SMILES beside them. *: point of attachment. X1 = NC(=O)C[C@@H](C(=O)[*:2])N(C[C@@H](N)Cc1ccc(O)cc1)[*:1]; Propanoyl(3-indol-3-yl) = O=C(CCc1c[nH]c2ccccc12)*; X3 = O=C(CNC(=S)[C@H](Cc1ccccc1)N[*:1])[*:2]; Diphenylacetyl = O=C(C(c1ccccc1)c1ccccc1)*; Arg(Me) = CNC(=N)NCCC[C@H](N)C(=O)O; Tryptamide = c1ccc2c(CCN*)c[nH]c2c1; X2 = O=C(Cc1c[nH]c2ccccc12)*; Tos = Cc1ccc(S(=O)(=O)*)cc1; X7 = O=C(c1c[nH]c2ccccc12)*; Cbz = O=C(OCc1ccccc1)*; CO = O=C([*:1])[*:2]; Bz = O=C(c1ccccc1)*; azaGly = NNC(=O)O
How the values were obtained:
hOT7T175 [1] = biological target: T1, hOT7T175 (Homo sapiens, UniProt Q969F8); assay: Intracellular Ca ion level-increasing activity using FLIPR (180 seconds; specific activity to Metastin (1-54)); assay type: cell-based; details: hOT7T175/CHO, change in intracellular calcium ion level for 180 seconds, Tables 21-23
T1 construct: expressed in transfected cells

hOT7T175 [2] = biological target: T2, hOT7T175 (Homo sapiens, UniProt Q969F8, L364H); assay type: cell-based; details: hOT7T175/CHO, FLIPR, evaluation for 40 seconds after initiation of the reaction
T2 construct: expressed in transfected cells
T2 sequence (Q969F8 whole entry L364H): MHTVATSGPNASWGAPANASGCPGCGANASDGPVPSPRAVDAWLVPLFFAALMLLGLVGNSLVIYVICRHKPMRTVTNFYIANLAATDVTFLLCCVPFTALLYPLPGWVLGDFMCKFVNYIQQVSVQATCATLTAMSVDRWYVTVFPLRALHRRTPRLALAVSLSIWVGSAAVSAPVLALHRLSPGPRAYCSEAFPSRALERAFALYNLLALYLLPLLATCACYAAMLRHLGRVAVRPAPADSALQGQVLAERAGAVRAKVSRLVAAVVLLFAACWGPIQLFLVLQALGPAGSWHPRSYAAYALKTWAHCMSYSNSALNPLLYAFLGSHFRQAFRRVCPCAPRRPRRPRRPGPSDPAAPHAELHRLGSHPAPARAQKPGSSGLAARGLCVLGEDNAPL
Method: The intracellular Ca ion level-increasing activity was measured using FLIPR as in TEST EXAMPLE 2.

T1 sequence (Q969F8 whole entry L364H): as above

Molecule | intracellular Ca ion level-increasing activity [specific activity to Metastin (1-54)] (hOT7T175 [1]) | Specific Act. (EC50/MS10 EC50) (hOT7T175 [2])
1-Azetidinecarbonyl-Phe-AzaGly-Leu-Arg(Me)-Trp-NH2 [Compound No. 468] | 1 | 5.2
2-(Indol-3-yl)ethylcarbamoyl-Phe-AzaGly-Leu-Arg(Me)-Trp-NH2 [Compound No. 369] | 2 | 4.8
2-Aminoethyl-Gly-D-Tyr-Asn-Trp-Asn-Ser-Phe-Gly-Leu-Arg(Me)-Phe-NH2 [Compound No. 375] | 2 | 5.2
3-Furancarbonyl-Phe-AzaGly-Leu-Arg(Me)-Trp-NH2 [Compound No. 454] | 6 | 2.5
3-Phenylpropionyl-Ala-Ser-Phe-AzaGly-Leu-Arg(Me)-Trp-NH2 [Compound No. 500] | 1 | 3.2
3-Phenylpropionyl-Asn-Ile-Phe-AzaGly-Leu-Arg(Me)-Trp-NH2 [Compound No. 506] | 1 | 1.3
3-Phenylpropionyl-Asn-Ser-Trp-AzaGly-Leu-Arg(Me)-Trp-NH2 [Compound No. 507] | 5 | 1.7
4-Aminobenzoyl-Phe-AzaGly-Leu-Arg(Me)-Trp-NH2 [Compound No. 472] | 3 | 3.4
4-Aminomethylbenzoyl-Phe-AzaGly-Leu-Arg(Me)-Trp-NH2 [Compound No. 473] | 3 | 4.2
4-Imidazolecarbonyl-Phe-AzaGly-Leu-Arg(Me)-Trp-NH2 [Compound No. 459] | 2 | 7.3
6-(Trifluoromethyl)nicotinoyl-Phe-AzaGly-Leu-Arg(Me)-Trp-NH2 [Compound No. 464] | 1 | 10.5
6-Chloronicotinoyl-Phe-AzaGly-Leu-Arg(Me)-Trp-NH2 [Compound No. 463] | 2 | 4.6
6-Methylnicotinoyl-Phe-AzaGly-Leu-Arg(Me)-Trp-NH2 [Compound No. 445] | 5 | 4.2
CNC(=N)NCCC[C@H](NC(=O)[C@H](CC(C)C)NC(=O)NNC(=O)[C@H](Cc1ccccc1)NC(=O)[C@H](CO)NC(=O)[C@H](CC(N)=O)NC(=O)CCc1c[nH]c2ccccc12)C(=O)N[C@@H](Cc1ccccc1)C(N)=O [Compound No. 260, 3-(3-Indolyl)propionyl-Asn-Ser-Phe-AzaGly-Leu-Arg(Me)-Phe-NH2] ({Propanoyl(3-indol-3-yl)}-NSF[azaGly]L[Arg(Me)]F-NH2) | 5 | 4.3
CNC(=N)NCCC[C@H](NC(=O)[C@H](CC(C)C)NC(=O)NNC(=O)[C@H](Cc1ccccc1)NC(=O)[C@H](CO)NC(=O)[C@H](CC(N)=O)NC(=O)c1c[nH]c2ccccc12)C(=O)N[C@@H](Cc1ccccc1)C(N)=O [Compound No. 265, Indole-3-carbonyl-Asn-Ser-Phe-AzaGly-Leu-Arg(Me)-Phe-NH2] (X7-NSF[azaGly]L[Arg(Me)]F-NH2) | 3 | 4.4
CNC(=N)NCCC[C@H](NC(=O)[C@H](CC(C)C)NC(=O)NNC(=O)[C@H](Cc1ccccc1)NC(=O)[C@H](CO)NC(=O)[C@H](CC(N)=O)NC(=O)Cc1c[nH]c2ccccc12)C(=O)N[C@@H](Cc1ccccc1)C(N)=O [Compound No. 266, Indol-3-acetyl-Asn-Ser-Phe-AzaGly-Leu-Arg(Me)-Phe-NH2] (X2-NSF[azaGly]L[Arg(Me)]F-NH2) | 2 | 5.4
CNC(=N)NCCC[C@H](NC(=O)[C@H](CC(C)C)NC(=O)NNC(=O)[C@H](Cc1ccccc1)NC(=O)[C@H](CO)NC(=O)[C@H](CC(N)=O)NC(=O)C(c1ccccc1)c1ccccc1)C(=O)N[C@@H](Cc1ccccc1)C(N)=O [Compound No. 268, Diphenylacetyl-Asn-Ser-Phe-AzaGly-Leu-Arg(Me)-Phe-NH2] (Diphenylacetyl-NSF[azaGly]L[Arg(Me)]F-NH2) | 1 | 4.5
CNC(=N)NCCC[C@H](NC(=O)[C@H](CC(C)C)NC(=O)NNC(=O)[C@H](Cc1ccccc1)NC(=O)[C@H](CO)NC(=O)[C@H](CC(N)=O)NC(=O)NCCc1c[nH]c2ccccc12)C(=O)N[C@@H](Cc1ccccc1)C(N)=O [Compound No. 279, 2-(indol-3-yl)ethylcarbamoyl-Asn-Ser-Phe-AzaGly-Leu-Arg(Me)-Phe-NH2] ({Tryptamide-CO}-NSF[azaGly]L[Arg(Me)]F-NH2) | 5 | 6.4
CC(C)C[C@H](NC(=O)CNC(=O)[C@H](Cc1ccccc1)NC(=O)[C@H](CO)NC(=O)[C@H](CC(N)=O)NC(=O)[C@H](Cc1c[nH]c2ccccc12)NC(=O)[C@H](CC(N)=O)NC[C@@H](N)Cc1ccc(O)cc1)C(=O)N[C@@H](CCCNC(=N)N)C(=O)N[C@@H](Cc1ccccc1)C(N)=O [Compound No. 294] (H-[X1]WNSFGLRF-NH2) | 10 | 0.7
CNC(=N)NCCC[C@H](NC(=O)[C@H](CC(C)C)NC(=O)CNC(=S)[C@H](Cc1ccccc1)NC(=O)[C@H](CO)NC(=O)[C@H](CC(N)=O)NC(=O)[C@H](Cc1c[nH]c2ccccc12)NC(=O)[C@H](CC(N)=O)NC(=O)[C@H](N)Cc1ccc(O)cc1)C(=O)N[C@@H](Cc1ccccc1)C(N)=O [Compound No. 296, D-Tyr-Asn-Trp-Asn-Ser-PheΨ(CSNH)Gly-Leu-Arg(Me)-Phe-NH2] (H-[dY]NWNS[X3]L[Arg(Me)]F-NH2) | 3 | 5.2
Bz-A[azaGly]L[Arg(Me)]W-NH2 [Compound No. 392] | ⅕ | 
Bz-FGLRF-NH2 [Compound No. 351] | ½ | 

Molecule | intracellular Ca ion level-increasing activity [specific activity to Metastin (1-54)] (hOT7T175 [1]) | Specific Act. (EC50/MS10 EC50) (hOT7T175 [2])
Cbz-F[azaGly]L[Arg(Me)]F-NH2 [Compound No. 348] | ⅕ | 
Cbz-[azaGly]L[Arg(Me)]W-NH2 [Compound No. 374] | ⅓ | 
Cyclohexanecarbonyl-Phe-AzaGly-Leu-Arg(Me)-Trp-NH2 [Compound No. 439] | 2 | 
D-Tyr-D-Pya(4)-Asn-Ser-Phe-AzaGly-Leu-Har(Me)-Phe-NH2 [Compound No. 489] | ½ | 
D-Tyr-D-Pya(4)-Asn-Ser-Phe-AzaGly-Leu-Lys-Phe-NH2 [Compound No. 487] | 1 | 
D-Tyr-D-Pya(4)-Asn-Ser-Phe-AzaGly-Leu-Orn-Phe-NH2 [Compound No. 486] | ½ | 
D-Tyr-Pya(4)-Phe-AzaGly-Leu-Arg(Me)-Trp-NH2 [Compound No. 495] | ⅙ | 
Dibenzylaminocarbamoyl-AzaGly-Leu-Arg(Me)-Trp-NH2 [Compound No. 428] | 1/10 | 
Dibenzylaminocarbamoylacetyl-Leu-Arg(Me)-Trp-NH2 [Compound No. 434] | 1/10 | 
Indole-3-acetyl-Phe-AzaGly-Leu-Arg(Me)-Phe-NH2 [Compound No. 345] | 2 | 
Indole-3-carbonyl-Phe-AzaGly-Leu-Arg(Me)-Phe-NH2 [Compound No. 344] | ½ | 
Methylthiocarbamoyl-Sar-D-Tyr-Asn-Trp-Asn-Ser-Phe-Gly-Leu-Arg(Me)-Phe-NH2 [Compound No. 397] | 5 | 
Phenylacetyl-Phe-AzaGly-Leu-Arg(Me)-Trp-NH2 [Compound No. 440] | 1 | 
Propionyl-Phe-AzaGly-Leu-Arg(Me)-Trp-NH2 [Compound No. 437] | 2 | 
Pyrazinecarbonyl-Phe-AzaGly-Leu-Arg(Me)-Trp-NH2 [Compound No. 446] | 1 | 
Tos-F[azaGly]L[Arg(Me)]F-NH2 [Compound No. 349] | ⅕ | 
Tos-Phe-AzaGly-Leu-Arg(Me)-Trp-NH2 [Compound No. 368] | ½ | 
Trifluoroacetyl-Phe-AzaGly-Leu-Arg(Me)-Trp-NH2 [Compound No. 448] | 3 | 
Z-Phe-AzaGly-Leu-Arg(Me)-Trp-NH2 [Compound No. 367] | ⅕ | 
n-Hexanoyl-Phe-AzaGly-Leu-Arg(Me)-Phe-NH2 [Compound No. 347] | ½ | 
n-Hexanoyl-Phe-AzaGly-Leu-Arg(Me)-Trp-NH2 [Compound No. 366] | ⅓ | 

From patent US8778871B2 (Takeda Pharmaceutical Company Limited, priority 2004, dated 2014)
